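1) Cells in 96-well plates. 2) Compound, 48 h, 5 concentrations. 3) Linear interpolation between surrounding doses. 4) Unreached endpoint = highest concentration. At the GI50, growth is halved. TGI marks complete inhibition of growth.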
Columns and labels:
Assay in all cases: inhibition of tumour cell growth, NCI panel, 48 h
SF-539 CNS = system: SF-539 CNS
BT-549 breast = system: BT-549 breast
MALME-3M melanoma = system: MALME-3M melanoma
SNB-19 CNS = system: SNB-19 CNS
NCI-H226 lung = system: NCI-H226 lung
EKVX NSCLC = system: EKVX NSCLC
HT29 colon = system: HT29 colon
COLO 205 colon = system: COLO 205 colon
T-47D breast = system: T-47D breast
U251 CNS = system: U251 CNS
ACHN renal = system: ACHN renal
MDA-MB-231 breast = system: MDA-MB-231 breast
MOLT-4 leukemia = system: MOLT-4 leukemia
IGROV1 ovarian = system: IGROV1 ovarian
SN12C renal = system: SN12C renal
CAKI-1 renal = system: CAKI-1 renal
MDA-MB-435 = system: MDA-MB-435
SF-268 CNS = system: SF-268 CNS
OVCAR-5 ovarian = system: OVCAR-5 ovarian
SW-620 colon = system: SW-620 colon
SK-MEL-5 melanoma = system: SK-MEL-5 melanoma
SF-295 CNS = system: SF-295 CNS
DU-145 prostate = system: DU-145 prostate
UACC-257 melanoma = system: UACC-257 melanoma
UACC-62 melanoma = system: UACC-62 melanoma
NCI-H460 lung = system: NCI-H460 lung
SK-MEL-28 melanoma = system: SK-MEL-28 melanoma
LOX IMVI melanoma = system: LOX IMVI melanoma
M14 melanoma = system: M14 melanoma
K-562 leukemia = system: K-562 leukemia
A549 NSCLC = system: A549 NSCLC
HCC-2998 colon = system: HCC-2998 colon
OVCAR-4 ovarian = system: OVCAR-4 ovarian
HS 578T breast = system: HS 578T breast
786-0 renal = system: 786-0 renal
SK-MEL-2 melanoma = system: SK-MEL-2 melanoma
RXF 393 renal = system: RXF 393 renal
TK-10 renal = system: TK-10 renal
MCF7 breast = system: MCF7 breast
NCI-H522 lung = system: NCI-H522 lung
HCT-15 colon = system: HCT-15 colon
HOP-62 NSCLC = system: HOP-62 NSCLC
OVCAR-8 ovarian = system: OVCAR-8 ovarian
NCI/ADR-RES ovarian = system: NCI/ADR-RES ovarian
HCT-116 colon = system: HCT-116 colon
UO-31 renal = system: UO-31 renal
SNB-75 CNS = system: SNB-75 CNS
NCI-H23 lung = system: NCI-H23 lung
HL-60(TB) leukemia = system: HL-60(TB) leukemia
HOP-92 NSCLC = system: HOP-92 NSCLC
PC-3 prostate = system: PC-3 prostate
SK-OV-3 ovarian = system: SK-OV-3 ovarian
A498 renal = system: A498 renal
OVCAR-3 ovarian = system: OVCAR-3 ovarian
KM12 colon = system: KM12 colon
RPMI-8226 leukemia = system: RPMI-8226 leukemia
CCRF-CEM leukemia = system: CCRF-CEM leukemia

O=c1[nH]cnc2c1cnn2Cc1cnnn1COCCO
TGI (SF-539 CNS): > 100 µM | TGI (BT-549 breast): > 100 µM | TGI (MALME-3M melanoma): > 100 µM | TGI (SNB-19 CNS): > 100 µM | TGI (NCI-H226 lung): > 100 µM | TGI (EKVX NSCLC): > 100 µM | TGI (HT29 colon): > 100 µM | TGI (COLO 205 colon): > 100 µM | TGI (T-47D breast): > 100 µM | TGI (U251 CNS): > 100 µM | TGI (ACHN renal): > 100 µM | TGI (MDA-MB-231 breast): > 100 µM | TGI (MOLT-4 leukemia): > 100 µM | TGI (IGROV1 ovarian): > 100 µM | TGI (SN12C renal): > 100 µM | TGI (CAKI-1 renal): > 100 µM | TGI (MDA-MB-435): 90.5 µM | TGI (SF-268 CNS): > 100 µM | TGI (OVCAR-5 ovarian): > 100 µM | TGI (SW-620 colon): > 100 µM | TGI (SK-MEL-5 melanoma): > 100 µM | TGI (SF-295 CNS): > 100 µM | TGI (DU-145 prostate): > 100 µM | TGI (UACC-257 melanoma): > 100 µM | TGI (UACC-62 melanoma): > 100 µM | TGI (NCI-H460 lung): > 100 µM | TGI (SK-MEL-28 melanoma): > 100 µM | TGI (LOX IMVI melanoma): > 100 µM | TGI (M14 melanoma): > 100 µM | TGI (K-562 leukemia): > 100 µM | TGI (A549 NSCLC): > 100 µM | TGI (HCC-2998 colon): > 100 µM | TGI (OVCAR-4 ovarian): > 100 µM | TGI (HS 578T breast): > 100 µM | TGI (786-0 renal): > 100 µM | TGI (SK-MEL-2 melanoma): > 100 µM | TGI (RXF 393 renal): > 100 µM | TGI (TK-10 renal): > 100 µM | TGI (MCF7 breast): > 100 µM | TGI (NCI-H522 lung): > 100 µM | TGI (HCT-15 colon): > 100 µM | TGI (HOP-62 NSCLC): > 100 µM | TGI (OVCAR-8 ovarian): > 100 µM | TGI (NCI/ADR-RES ovarian): > 100 µM | TGI (HCT-116 colon): > 100 µM | TGI (UO-31 renal): > 100 µM | TGI (SNB-75 CNS): > 100 µM | TGI (NCI-H23 lung): > 100 µM | TGI (HL-60(TB) leukemia): > 100 µM | TGI (HOP-92 NSCLC): > 100 µM | TGI (PC-3 prostate): > 100 µM | TGI (SK-OV-3 ovarian): > 100 µM | TGI (A498 renal): > 100 µM | TGI (OVCAR-3 ovarian): > 100 µM | TGI (KM12 colon): > 100 µM

O=C(NCCNCCO)c1ccc(Nc2nc3ccccc3c3occc23)cc1
GI50 (SF-539 CNS): 12.6 µM | TGI (SF-539 CNS): 29.4 µM | GI50 (BT-549 breast): 11.5 µM | TGI (BT-549 breast): 34.2 µM | GI50 (SNB-19 CNS): 18.5 µM | TGI (SNB-19 CNS): 49.5 µM | GI50 (EKVX NSCLC): 13.9 µM | TGI (EKVX NSCLC): 32 µM | GI50 (HT29 colon): 29.3 µM | TGI (HT29 colon): > 100 µM | GI50 (COLO 205 colon): 29.1 µM | TGI (COLO 205 colon): > 100 µM | GI50 (T-47D breast): 25.8 µM | TGI (T-47D breast): 90.2 µM | GI50 (U251 CNS): 11.2 µM | TGI (U251 CNS): 23.8 µM | GI50 (ACHN renal): 14.2 µM | TGI (ACHN renal): 27.3 µM | GI50 (MDA-MB-231 breast): 3.12 µM | TGI (MDA-MB-231 breast): 16.2 µM | GI50 (MOLT-4 leukemia): 4.77 µM | TGI (MOLT-4 leukemia): 15.1 µM | GI50 (IGROV1 ovarian): 6.71 µM | TGI (IGROV1 ovarian): 25.1 µM | GI50 (SN12C renal): 11.9 µM | TGI (SN12C renal): 24.6 µM | GI50 (CAKI-1 renal): 17.3 µM | TGI (CAKI-1 renal): 33.1 µM | GI50 (MDA-MB-435): 7.29 µM | TGI (MDA-MB-435): 22 µM | GI50 (SF-268 CNS): > 100 µM | TGI (SF-268 CNS): > 100 µM | GI50 (OVCAR-5 ovarian): 10.9 µM | TGI (OVCAR-5 ovarian): 23.2 µM | GI50 (SW-620 colon): 21.1 µM | TGI (SW-620 colon): 43.1 µM | GI50 (SK-MEL-5 melanoma): 18.4 µM | TGI (SK-MEL-5 melanoma): 35.2 µM | GI50 (RPMI-8226 leukemia): 18.3 µM | TGI (RPMI-8226 leukemia): 37.5 µM | GI50 (SF-295 CNS): 14.1 µM | TGI (SF-295 CNS): 29.8 µM | GI50 (DU-145 prostate): 14.9 µM | TGI (DU-145 prostate): 30.7 µM | GI50 (UACC-62 melanoma): 16.6 µM | TGI (UACC-62 melanoma): 30.8 µM | GI50 (NCI-H460 lung): 28.5 µM | TGI (NCI-H460 lung): > 100 µM | GI50 (SK-MEL-28 melanoma): 23.7 µM | TGI (SK-MEL-28 melanoma): 58.4 µM | GI50 (LOX IMVI melanoma): 8.45 µM | TGI (LOX IMVI melanoma): 22.2 µM | GI50 (M14 melanoma): 14.9 µM | TGI (M14 melanoma): 30.4 µM | GI50 (K-562 leukemia): 3.37 µM | TGI (K-562 leukemia): 6.71 µM | GI50 (A549 NSCLC): 15.3 µM | TGI (A549 NSCLC): 30.1 µM | GI50 (HCC-2998 colon): 2.14 µM | TGI (HCC-2998 colon): 5.27 µM | GI50 (OVCAR-4 ovarian): 24 µM | TGI (OVCAR-4 ovarian): > 100 µM | GI50 (HS 578T breast): 16.1 µM | TGI (HS 578T breast): 36.7 µM | GI50 (CCRF-CEM leukemia): 3.05 µM | TGI (CCRF-CEM leukemia): 14.3 µM | GI50 (786-0 renal): 13.7 µM | TGI (786-0 renal): 27.5 µM | GI50 (SK-MEL-2 melanoma): 20.5 µM | TGI (SK-MEL-2 melanoma): 60.3 µM | GI50 (TK-10 renal): 2.11 µM | TGI (TK-10 renal): 6.67 µM | GI50 (MCF7 breast): 28 µM | TGI (MCF7 breast): > 100 µM | GI50 (NCI-H522 lung): 14.3 µM | TGI (NCI-H522 lung): 35.4 µM | GI50 (HCT-15 colon): 16.7 µM | TGI (HCT-15 colon): 31.2 µM | GI50 (HOP-62 NSCLC): 12.2 µM | TGI (HOP-62 NSCLC): 24.9 µM | GI50 (OVCAR-8 ovarian): 2.61 µM | TGI (OVCAR-8 ovarian): 16.2 µM | GI50 (NCI/ADR-RES ovarian): 24.9 µM | TGI (NCI/ADR-RES ovarian): 61.8 µM | GI50 (HCT-116 colon): 10.1 µM | TGI (HCT-116 colon): 23.3 µM | GI50 (UO-31 renal): 18.5 µM | TGI (UO-31 renal): 44.9 µM | GI50 (SNB-75 CNS): 9.26 µM | TGI (SNB-75 CNS): 27.2 µM | GI50 (NCI-H23 lung): 12.8 µM | TGI (NCI-H23 lung): 26.4 µM | GI50 (HOP-92 NSCLC): 3.01 µM | TGI (HOP-92 NSCLC): 18.4 µM | GI50 (PC-3 prostate): 4.15 µM | TGI (PC-3 prostate): 18.3 µM | GI50 (SK-OV-3 ovarian): 15.4 µM | TGI (SK-OV-3 ovarian): 36.5 µM | GI50 (A498 renal): 18.3 µM | TGI (A498 renal): 39.4 µM | GI50 (OVCAR-3 ovarian): 6.22 µM | TGI (OVCAR-3 ovarian): 22.8 µM | GI50 (KM12 colon): 8.99 µM | TGI (KM12 colon): 23.8 µM

From PubChem BioAssay (NCI)
